Test results as given in article PMC2699117, “Drug Discovery Using Chemical Systems Biology: Repositioning the Safe Medicine Comtan to Treat Multi-Drug and Extensively Drug Resistant Tuberculosis” (PLoS Computational Biology, 2009).

Molecular target: T1, InhA (enoyl-acyl carrier protein reductase) (Mycobacterium tuberculosis, UniProt P9WGR1)
T1 construct: wild-type InhA
Assay: biochemical

T1 sequence (P9WGR1 whole entry, looked up): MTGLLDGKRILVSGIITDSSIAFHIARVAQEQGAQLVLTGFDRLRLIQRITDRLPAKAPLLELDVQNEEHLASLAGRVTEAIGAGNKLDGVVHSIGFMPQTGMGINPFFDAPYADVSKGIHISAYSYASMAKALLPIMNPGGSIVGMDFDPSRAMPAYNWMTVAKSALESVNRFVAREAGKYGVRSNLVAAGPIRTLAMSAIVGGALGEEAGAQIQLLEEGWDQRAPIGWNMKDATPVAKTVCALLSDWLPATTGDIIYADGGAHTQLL

CCN(CC)C(=O)/C(C#N)=C/c1cc(O)c(O)c([N+](=O)[O-])c1 [entacapone]
IC50: 79 ± 10 µM
